Earlier results, collected in patent publication US20050124598A1, “Antibiotic compounds” (priority 2001, published 2005).

Target: PBP2a (Staphylococcus aureus, UniProt P07944)
Settings: reported β-lactam inhibitors, literature values

Row | IC50 for PBP2a [µg/mL] | Compound
1 | 0.5 | NCCSCc1cnccc1SC1=C(C(=O)O)N2C(=O)[C@@H](NC(=O)/C(=N\O)c3nc(N)sc3Cl)[C@H]2SC1 [MC-02479]
2 | 0.58 | NC(=O)C[n+]1ccc(S/C=C/C2=C(C(=O)[O-])N3C(=O)C(NC(=O)/C(=N\O)c4csc(N)n4)C3SC2)cc1 (centres unmarked) [TOC-39]
